Consider four compounds from patent publication US6492422B2, “Tricyclic sulfonamides and their derivatives as inhibitors of matrix metalloproteinases” (Warner-Lambert Company, priority 1998, dated 2002).

Molecules are shown by their SMILES.

Data set [1] addresses T1, MMP-9FL (gelatinase B full length enzyme) (Homo sapiens, UniProt P14780).
T1 construct: MMP-9-FL (gelatinase B full length enzyme)
As to the kind of experiment: MMP inhibition, thiopeptolide substrate, MMP-9FL. In kind it is biochemical. As to conditions: thiopeptolide substrate Ac-Pro-Leu-Gly-thioester-Leu-Leu-Gly-OEt. Here is the method: (§1) Experiments were carried out with the full-length and catalytic domains of the proteinases. […] IC50 values were determined using a thiopeptolide substrate, Ac-Pro-Leu-Gly-thioester-Leu-Leu-Gly-OEt (Ye Q.-Z., Johnson L. L., Hupe D. J., and Baragi V., “Purification and Characterization of the Human Stromelysin Catalytic Domain Expressed in Escherichia coli,” Biochemistry, 1992;31:11231-11235; Ye Q.-Z., Johnson L. L., Yu A. E., and Hupe D., “Reconstructed 19 kDa catalytic domain of gelatinase A is an active proteinase,” i Biochemistry, 1995;34:47024708.) MMP-13CD was expressed from a synthetic gene and purified from Escherichia coli cell culture according to a previously described method (Ye Q.-Z., Johnson L. L., and Baragi V., “Gene synthesis and expression in E. coli for PUMP, a human matrix metalloproteinase,” Biochemical and Biophysical Research Communications, 1992;186:143-149).

In data set [2] the target is T2, MMP-7FL (matrilysin full length enzyme) (Homo sapiens, UniProt P09237).
T2 construct: MMP-7FL (matrilysin full length enzyme)
T2 sequence (P09237 95-267): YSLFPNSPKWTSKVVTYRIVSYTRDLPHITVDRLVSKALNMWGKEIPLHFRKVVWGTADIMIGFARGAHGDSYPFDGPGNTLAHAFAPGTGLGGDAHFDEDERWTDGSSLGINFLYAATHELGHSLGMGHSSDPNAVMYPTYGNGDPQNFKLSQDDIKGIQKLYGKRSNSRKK
In words: MMP inhibition, thiopeptolide substrate, MMP-7FL. In kind it is biochemical. As to conditions: thiopeptolide substrate Ac-Pro-Leu-Gly-thioester-Leu-Leu-Gly-OEt. Here is the method:
as §1

Data set [3] addresses T3, MMP-1FL (collagenase-1 full length enzyme) (Homo sapiens, UniProt P03956).
T3 construct: MMP-IFL (collagenase-1 full length enzyme)
T3 sequence (P03956 100-469): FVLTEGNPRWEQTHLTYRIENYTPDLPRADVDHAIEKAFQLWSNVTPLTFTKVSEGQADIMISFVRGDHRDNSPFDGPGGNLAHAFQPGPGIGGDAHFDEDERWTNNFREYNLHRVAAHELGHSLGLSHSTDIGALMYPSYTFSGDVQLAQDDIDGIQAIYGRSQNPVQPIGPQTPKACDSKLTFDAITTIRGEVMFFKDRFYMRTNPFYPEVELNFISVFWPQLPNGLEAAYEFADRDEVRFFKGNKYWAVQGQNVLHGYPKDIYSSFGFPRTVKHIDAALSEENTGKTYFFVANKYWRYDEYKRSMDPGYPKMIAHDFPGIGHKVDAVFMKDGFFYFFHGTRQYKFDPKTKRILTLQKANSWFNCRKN
As to the kind of experiment: MMP inhibition, thiopeptolide substrate, MMP-1FL. In kind it is biochemical. As to conditions: thiopeptolide substrate Ac-Pro-Leu-Gly-thioester-Leu-Leu-Gly-OEt. Here is the method:
as §1

In data set [4] the target is MMP-14CD (membrane-type MMP-1) (Homo sapiens, UniProt P50281). In words: MMP inhibition, thiopeptolide substrate, MMP-14CD. In kind it is biochemical. As to conditions: thiopeptolide substrate Ac-Pro-Leu-Gly-thioester-Leu-Leu-Gly-OEt; catalytic domain. Here is the method: as §1
In data set [5] the target is MMP-2CD (gelatinase A catalytic domain) (Homo sapiens, UniProt P08253). As to the kind of experiment: MMP inhibition, thiopeptolide substrate, MMP-2CD. In kind it is biochemical. Particulars: thiopeptolide substrate Ac-Pro-Leu-Gly-thioester-Leu-Leu-Gly-OEt. Here is the method: as §1
Chain of MMP-2CD (gelatinase A catalytic domain) (P08253 with tags, fused parts or gaps DEL222-396): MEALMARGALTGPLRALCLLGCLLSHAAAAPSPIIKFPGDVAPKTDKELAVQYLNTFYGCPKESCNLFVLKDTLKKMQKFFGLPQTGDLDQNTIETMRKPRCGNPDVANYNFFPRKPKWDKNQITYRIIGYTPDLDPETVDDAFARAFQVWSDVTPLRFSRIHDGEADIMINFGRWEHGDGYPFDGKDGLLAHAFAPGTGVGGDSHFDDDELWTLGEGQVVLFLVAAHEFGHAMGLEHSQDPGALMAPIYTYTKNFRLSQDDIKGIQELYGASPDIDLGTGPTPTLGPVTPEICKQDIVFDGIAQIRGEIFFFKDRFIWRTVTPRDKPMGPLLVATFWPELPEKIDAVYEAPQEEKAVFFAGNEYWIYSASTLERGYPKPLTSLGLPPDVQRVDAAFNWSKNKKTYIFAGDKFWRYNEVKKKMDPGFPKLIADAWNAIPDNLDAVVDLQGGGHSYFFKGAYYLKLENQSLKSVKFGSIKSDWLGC
Data set [6] concerns the target T4, MMP-13CD (collagenase-3 catalytic domain) (Homo sapiens, UniProt P45452).
T4 construct: MMP-13CD (collagenase-3 catalytic domain); made in house; host or cells: Escherichia coli
As to the kind of experiment: MMP inhibition, thiopeptolide substrate, MMP-13CD. The data set is classed as biochemical. Particulars: thiopeptolide substrate Ac-Pro-Leu-Gly-thioester-Leu-Leu-Gly-OEt; catalytic domain expressed in Escherichia coli. Here is the method:
as §1

The target of data set [7] is T5, MMP-2FL (gelatinase A full length enzyme) (Homo sapiens, UniProt P08253).
T5 construct: Experiments were carried out with the full-length and catalytic domains of the proteinases
T5 sequence (P08253 110-660): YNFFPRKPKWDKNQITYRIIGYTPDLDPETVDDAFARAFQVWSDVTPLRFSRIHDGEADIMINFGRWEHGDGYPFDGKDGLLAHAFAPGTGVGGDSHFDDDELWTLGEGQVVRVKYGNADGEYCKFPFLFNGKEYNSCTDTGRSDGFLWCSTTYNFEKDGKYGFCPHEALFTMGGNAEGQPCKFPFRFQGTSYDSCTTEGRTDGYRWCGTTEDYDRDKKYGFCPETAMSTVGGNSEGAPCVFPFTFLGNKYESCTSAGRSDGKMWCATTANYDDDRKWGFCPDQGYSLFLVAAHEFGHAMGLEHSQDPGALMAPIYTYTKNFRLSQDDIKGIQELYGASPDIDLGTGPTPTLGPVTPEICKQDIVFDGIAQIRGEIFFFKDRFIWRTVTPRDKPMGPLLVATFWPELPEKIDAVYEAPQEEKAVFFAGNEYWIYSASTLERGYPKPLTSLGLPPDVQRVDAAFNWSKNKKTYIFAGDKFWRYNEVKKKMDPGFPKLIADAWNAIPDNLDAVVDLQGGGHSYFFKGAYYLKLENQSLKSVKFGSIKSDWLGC
In words: MMP inhibition, thiopeptolide substrate, MMP-2FL. As to conditions: thiopeptolide substrate Ac-Pro-Leu-Gly-thioester-Leu-Leu-Gly-OEt. In kind it is biochemical. Here is the method: as §1

Data set [8] concerns the target T6, MMP-3CD (stromelysin-1 catalytic domain) (Homo sapiens, UniProt P08254).
T6 construct: MMP-3CD (stromelysin-1 catalytic domain)
As to the kind of experiment: MMP inhibition, thiopeptolide substrate, MMP-3CD. Particulars: thiopeptolide substrate Ac-Pro-Leu-Gly-thioester-Leu-Leu-Gly-OEt. The data set is classed as biochemical. Here is the method:
as §1

T1 sequence (P14780 94-707): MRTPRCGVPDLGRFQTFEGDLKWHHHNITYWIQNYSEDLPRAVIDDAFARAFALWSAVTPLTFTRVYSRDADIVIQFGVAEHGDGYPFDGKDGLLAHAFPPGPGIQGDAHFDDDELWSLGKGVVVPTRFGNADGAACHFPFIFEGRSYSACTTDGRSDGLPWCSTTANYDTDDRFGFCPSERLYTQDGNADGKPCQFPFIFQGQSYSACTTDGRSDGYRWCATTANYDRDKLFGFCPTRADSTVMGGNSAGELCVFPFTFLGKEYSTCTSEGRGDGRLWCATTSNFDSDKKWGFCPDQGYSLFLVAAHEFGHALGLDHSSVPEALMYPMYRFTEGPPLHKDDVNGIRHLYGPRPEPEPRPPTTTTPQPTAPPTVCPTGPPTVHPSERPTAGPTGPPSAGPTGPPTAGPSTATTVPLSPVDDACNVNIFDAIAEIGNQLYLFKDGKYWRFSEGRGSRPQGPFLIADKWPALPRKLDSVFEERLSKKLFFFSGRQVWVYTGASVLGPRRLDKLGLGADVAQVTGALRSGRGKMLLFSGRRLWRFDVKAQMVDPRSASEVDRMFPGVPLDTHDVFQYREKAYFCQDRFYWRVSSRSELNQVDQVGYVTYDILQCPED
T6 sequence (P08254 100-272 limits assumed): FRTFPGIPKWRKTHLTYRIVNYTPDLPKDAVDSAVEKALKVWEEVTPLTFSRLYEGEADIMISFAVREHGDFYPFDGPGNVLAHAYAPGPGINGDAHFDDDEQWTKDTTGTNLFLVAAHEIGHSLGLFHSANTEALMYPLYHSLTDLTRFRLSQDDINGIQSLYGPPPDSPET

Turning to `CC(C)[C@@H](NS(=O)(=O)c1ccc2c3c(oc2c1)CCCC3)C(=O)O` [Example 1, (R) 3-Methyl-2-(6,7,8,9-tetrahydro-dibenzofuran-3-sulfonylamino)-butyric Acid], the IC50 in [1] worked out at 30 µM; in data set [2], 82 µM; in data set [3], 6.7 µM; in data set [4] it was 0.38 µM; in data set [5], 0.037 µM; in data set [6] it was 3.45 µM. Also, the IC50 in data set [7] came to 0.335 µM; in data set [8] it was 0.046 µM.

For `O=C(O)[C@H](CCc1ccccc1)NS(=O)(=O)c1ccc2c3c(oc2c1)CCCC3` [Example 4, (S) 4-Phenyl-2-(6,7,8,9-tetrahydro-dibenzofuran-3-sulfonylamino)-butyric Acid], the melting point lay in the range of 167 to 169 °C. In data set [1], this compound showed an IC50 of 28 µM. The IC50 in data set [2] turned out to be 2.3 µM. Further, the IC50 in [3] is 25 µM. This compound also came in with an IC50 in data set [4] of 0.064 µM. The compound also returned a 50% inhibitory concentration (IC50) in data set [5] of 0.018 µM. For the same compound, half-maximal inhibition in data set [6] (IC50) was put at 1.34 µM. This compound had an IC50 in data set [7] of 0.15 µM. Also, the IC50 in data set [8] worked out at 0.0215 µM.

For `CC(C)[C@H](NS(=O)(=O)c1ccc2c3c(oc2c1)CCCC3)C(=O)O` [Example 2, (S) 3-Methyl-2-(6,7,8,9-tetrahydro-dibenzofuran-3-sulfonylamino)-butyric Acid], the melting point fell in the range of 162 to 165 °C. Besides, in data set [1], the IC50 turned out to be 100 µM. Besides, it took 7.5 µM to reach half-maximal inhibition in data set [2] (IC50). In data set [3], this compound displayed an IC50 of 6.05 µM. Besides, the midpoint of inhibition in [4], the IC50, lay at 0.155 µM. The same compound came in with an IC50 in data set [5] of 0.034 µM. In data set [6], this compound showed a half-inhibitory concentration (IC50) of 2.3 µM. This compound displayed a half-inhibitory concentration (IC50) in data set [7] of 0.43 µM. In [8], this compound registered an IC50 of 0.0245 µM.

`O=C(O)C[C@H](NS(=O)(=O)c1ccc2c3c(oc2c1)CCCC3)C(=O)O` [Example 3, (S) 2-(6,7,8,9-Tetrahydro-dibenzofuran-3-sulfonylamino)-succinic Acid]: the melting point lay within 176 to 179 °C. Besides, the midpoint of inhibition in data set [1], the IC50, lay at 100 µM. Moreover, 3.2 µM corresponded to half-maximal inhibition in [2] (IC50). The compound further showed an IC50 in data set [3] of 16 µM. In data set [4], this compound gave a 50% inhibitory concentration (IC50) of 0.048 µM. The IC50 in data set [5] was determined as 0.0167 µM. In data set [6], this compound returned an IC50 of 0.97 µM. This compound also had an IC50 in data set [7] of 0.45 µM. In data set [8], this compound displayed an IC50 of 0.0056 µM.

For orientation: IC50 means the concentration that inhibits the measured activity by half. Low values mean inhibition by little substance, high ones a need for much substance. The melting point is the temperature, or range, at which the solid turns liquid.
